In article PMC5362750, “Discovery of Potent, Selective, and Orally Bioavailable Small-Molecule Modulators of the Mediator Complex-Associated Kinases CDK8 and CDK19” (Journal of Medicinal Chemistry, 2016):
Where two headings read alike, the source gives them in different places.

Key:
TAO1 = molecular target: T1, TAO1 (Homo sapiens, UniProt Q7L7X3); test: Kinase panel (Millipore); type: biochemical; details: 1 µM, ATP at Km
T1 construct: purchased Millipore (KinaseProfiler) kinase panel

CLK2 = CLK2 (Homo sapiens, UniProt P49760); test: Kinase panel (Millipore); type: biochemical; details: 1 µM, ATP at Km
EGFR(T790M,L858R) = EGFR(T790M,L858R) (Homo sapiens, UniProt P00533, L858R/T790M); details: 1 µM, ATP at Km
CCK2 (CCKB) (h) = CCK2 (CCKB) (h) (Homo sapiens, UniProt P32239); test: CEREP binding assay; details: agonist radioligand, read-out: % Inhibition of Control Specific Binding
GRK5 = molecular target: T2, GRK5 (Homo sapiens, UniProt P34947); test: Kinase panel (Millipore); type: biochemical; details: 1 µM, ATP at Km
T2 construct: purchased Millipore (KinaseProfiler) kinase panel
T2 sequence (P34947 whole entry): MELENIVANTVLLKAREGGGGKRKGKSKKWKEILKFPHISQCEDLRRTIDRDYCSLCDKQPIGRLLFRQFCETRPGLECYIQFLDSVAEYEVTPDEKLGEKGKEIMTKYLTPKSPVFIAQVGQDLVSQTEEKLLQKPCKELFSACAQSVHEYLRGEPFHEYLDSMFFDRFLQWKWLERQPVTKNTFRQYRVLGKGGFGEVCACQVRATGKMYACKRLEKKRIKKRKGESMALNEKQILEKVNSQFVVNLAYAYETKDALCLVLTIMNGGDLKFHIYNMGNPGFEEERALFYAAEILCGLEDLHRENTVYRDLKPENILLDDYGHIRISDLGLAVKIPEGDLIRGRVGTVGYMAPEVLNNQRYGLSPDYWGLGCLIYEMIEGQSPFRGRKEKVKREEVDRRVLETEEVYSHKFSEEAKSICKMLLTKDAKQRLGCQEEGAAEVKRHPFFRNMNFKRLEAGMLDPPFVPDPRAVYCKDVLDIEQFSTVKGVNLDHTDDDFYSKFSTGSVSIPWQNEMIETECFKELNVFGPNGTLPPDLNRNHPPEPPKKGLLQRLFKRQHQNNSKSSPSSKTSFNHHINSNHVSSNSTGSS

TRKB = molecular target: T3, TRKB (Homo sapiens, UniProt Q16620); test: Kinase panel (Millipore); type: biochemical; details: 1 µM, ATP at Km
T3 construct: purchased Millipore (KinaseProfiler) kinase panel

JAK3 = molecular target: T4, JAK3 (Homo sapiens, UniProt P52333); test: Kinase panel (Millipore); type: biochemical; details: 1 µM, ATP at Km
T4 construct: purchased Millipore (KinaseProfiler) kinase panel

PRK2 = molecular target: T5, PRK2 (Homo sapiens, UniProt Q16513); test: Kinase panel (Millipore); type: biochemical; details: 1 µM, ATP at Km
T5 construct: purchased Millipore (KinaseProfiler) kinase panel

M4 (h) = M4 (h) (Homo sapiens, UniProt P08173); test: biochemical; details: read-out: % Inhibition of Control Specific Binding
MST3 = molecular target: T6, MST3 (Homo sapiens, UniProt Q9Y6E0); test: Kinase panel (Millipore); type: biochemical; details: 1 µM, ATP at Km
T6 construct: purchased Millipore (KinaseProfiler) kinase panel

[…](V561D) = […](V561D) (Homo sapiens, UniProt P16234, V561D); details: 1 µM, ATP at Km
Chain of […](V561D) (P16234 24-1089 V561D): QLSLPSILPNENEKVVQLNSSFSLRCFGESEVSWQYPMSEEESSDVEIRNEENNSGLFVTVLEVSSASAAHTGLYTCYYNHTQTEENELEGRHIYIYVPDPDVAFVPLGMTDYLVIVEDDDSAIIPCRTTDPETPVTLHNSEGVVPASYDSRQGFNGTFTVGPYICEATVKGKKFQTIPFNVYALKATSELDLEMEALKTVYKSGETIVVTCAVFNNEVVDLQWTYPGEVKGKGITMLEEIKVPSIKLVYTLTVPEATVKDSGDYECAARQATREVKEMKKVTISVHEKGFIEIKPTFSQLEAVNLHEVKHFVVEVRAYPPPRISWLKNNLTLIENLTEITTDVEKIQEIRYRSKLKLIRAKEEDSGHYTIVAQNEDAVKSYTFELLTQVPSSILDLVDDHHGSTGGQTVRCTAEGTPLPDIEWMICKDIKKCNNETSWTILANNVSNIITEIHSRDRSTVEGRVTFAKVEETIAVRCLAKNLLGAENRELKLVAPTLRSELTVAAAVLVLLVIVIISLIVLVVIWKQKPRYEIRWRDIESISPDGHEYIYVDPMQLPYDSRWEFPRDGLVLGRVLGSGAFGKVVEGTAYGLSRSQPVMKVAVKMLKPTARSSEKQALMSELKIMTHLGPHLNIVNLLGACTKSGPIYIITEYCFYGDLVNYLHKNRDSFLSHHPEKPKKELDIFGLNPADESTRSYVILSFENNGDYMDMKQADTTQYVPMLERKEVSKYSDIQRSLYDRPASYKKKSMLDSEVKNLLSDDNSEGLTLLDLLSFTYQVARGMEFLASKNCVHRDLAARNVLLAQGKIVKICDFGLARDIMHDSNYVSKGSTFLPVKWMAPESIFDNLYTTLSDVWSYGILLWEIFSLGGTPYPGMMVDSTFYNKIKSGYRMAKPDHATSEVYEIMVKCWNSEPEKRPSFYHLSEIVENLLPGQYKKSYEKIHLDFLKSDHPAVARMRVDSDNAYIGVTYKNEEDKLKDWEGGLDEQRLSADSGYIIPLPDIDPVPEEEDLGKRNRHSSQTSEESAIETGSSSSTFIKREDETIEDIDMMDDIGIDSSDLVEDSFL

DRAK1 = molecular target: T7, DRAK1 (Homo sapiens, UniProt Q9UEE5); test: Kinase panel (Millipore); type: biochemical; details: 1 µM, ATP at Km
T7 construct: purchased Millipore (KinaseProfiler) kinase panel
T7 sequence (Q9UEE5 whole entry): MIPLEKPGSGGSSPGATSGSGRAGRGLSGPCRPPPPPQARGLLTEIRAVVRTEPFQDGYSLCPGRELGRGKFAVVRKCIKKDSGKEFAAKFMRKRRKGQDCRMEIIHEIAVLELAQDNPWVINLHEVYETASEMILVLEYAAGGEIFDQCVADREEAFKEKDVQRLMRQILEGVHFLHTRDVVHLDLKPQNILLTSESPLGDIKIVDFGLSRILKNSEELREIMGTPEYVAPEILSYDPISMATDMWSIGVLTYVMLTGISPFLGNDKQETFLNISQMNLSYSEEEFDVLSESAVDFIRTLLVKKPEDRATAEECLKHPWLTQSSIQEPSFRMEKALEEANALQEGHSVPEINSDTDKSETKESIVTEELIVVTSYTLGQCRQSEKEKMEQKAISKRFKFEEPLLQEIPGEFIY

PCP = details: 10 µM, antagonist radioligand
A1 (h) = A1 (h) (Homo sapiens, UniProt P30542); test: CEREP binding assay; details: agonist radioligand, read-out: % Inhibition of Control Specific Binding
CRAF = CRAF (Homo sapiens, UniProt P04049); test: Kinase panel (Millipore); type: biochemical; details: 1 µM, ATP at Km
5-HT4e (h) = 5-HT4e (h) (Homo sapiens, UniProt Q13639); test: biochemical; details: read-out: % Inhibition of Control Specific Binding
DYRK2 = DYRK2 (Homo sapiens, UniProt Q92630); test: Kinase panel (Millipore); type: biochemical; details: 1 µM, ATP at Km
CAMKIIGAMMA = CAMKIIGAMMA (Homo sapiens, UniProt Q13555); test: Kinase panel (Millipore); type: biochemical; details: 1 µM, ATP at Km
Chain of CAMKIIGAMMA (Q13555 whole entry): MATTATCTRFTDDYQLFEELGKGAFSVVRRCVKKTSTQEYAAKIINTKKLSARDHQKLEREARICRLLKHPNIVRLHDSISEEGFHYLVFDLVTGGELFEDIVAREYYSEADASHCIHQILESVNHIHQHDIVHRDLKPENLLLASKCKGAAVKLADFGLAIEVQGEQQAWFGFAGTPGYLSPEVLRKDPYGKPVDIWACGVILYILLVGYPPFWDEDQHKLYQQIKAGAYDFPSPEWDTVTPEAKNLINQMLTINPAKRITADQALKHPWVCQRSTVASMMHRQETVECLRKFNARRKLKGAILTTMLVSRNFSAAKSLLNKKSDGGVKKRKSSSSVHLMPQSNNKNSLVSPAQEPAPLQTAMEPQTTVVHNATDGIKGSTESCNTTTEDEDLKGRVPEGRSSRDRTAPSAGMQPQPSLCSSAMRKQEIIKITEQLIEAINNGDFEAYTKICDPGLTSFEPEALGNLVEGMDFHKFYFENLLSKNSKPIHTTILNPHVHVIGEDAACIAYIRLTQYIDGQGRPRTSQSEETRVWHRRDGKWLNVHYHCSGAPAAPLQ

PIM-1 = PIM-1 (Homo sapiens, UniProt P11309); test: Kinase panel (Millipore); type: biochemical; details: 1 µM, ATP at Km
Chain of PIM-1 (P11309 whole entry): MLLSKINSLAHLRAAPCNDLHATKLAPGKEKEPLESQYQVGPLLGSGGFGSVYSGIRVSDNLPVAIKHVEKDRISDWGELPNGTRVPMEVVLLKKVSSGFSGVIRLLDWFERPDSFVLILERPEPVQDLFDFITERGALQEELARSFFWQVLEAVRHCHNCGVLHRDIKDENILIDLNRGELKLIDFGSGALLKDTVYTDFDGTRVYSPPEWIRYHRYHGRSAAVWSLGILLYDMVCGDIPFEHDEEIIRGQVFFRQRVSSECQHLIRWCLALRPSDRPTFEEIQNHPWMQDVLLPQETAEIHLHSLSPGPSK

CDK1/CYCLINB = CDK1/CYCLINB (Homo sapiens, UniProt P06493); details: 1 µM, ATP at Km
CKIT = molecular target: T8, CKIT (Homo sapiens, UniProt P10721); test: Kinase panel (Millipore); type: biochemical; details: 1 µM, ATP at Km
T8 construct: purchased Millipore (KinaseProfiler) kinase panel

MT3 (ML2) = details: 10 µM, agonist radioligand
MELK = molecular target: T9, MELK (Homo sapiens, UniProt Q14680); test: Kinase panel (Millipore); type: biochemical; details: 1 µM, ATP at Km
T9 construct: purchased Millipore (KinaseProfiler) kinase panel

in vivo = details: female, dog, 0.2 mg/kg
ARG = ARG (Homo sapiens, UniProt P42684); test: Kinase panel (Millipore); type: biochemical; details: 1 µM, ATP at Km
AT2 (h) = molecular target: T10, AT2 (h) (Homo sapiens, UniProt P50052); test: CEREP binding assay; details: agonist radioligand, read-out: % Inhibition of Control Specific Binding
T10 construct: purchased Millipore (KinaseProfiler) kinase panel

CDK2/CYCLINE = CDK2/CYCLINE (Homo sapiens, UniProt P24941); details: 1 µM, ATP at Km
PAK4 = molecular target: T11, PAK4 (Homo sapiens, UniProt O96013); test: Kinase panel (Millipore); type: biochemical; details: 1 µM, ATP at Km
T11 construct: purchased Millipore (KinaseProfiler) kinase panel

BRSK1 = molecular target: T12, BRSK1 (Homo sapiens, UniProt Q8TDC3); test: Kinase panel (Millipore); type: biochemical; details: 1 µM, ATP at Km
T12 construct: purchased Millipore (KinaseProfiler) kinase panel

RSK1 = molecular target: T13, RSK1 (Homo sapiens, UniProt Q15418); test: Kinase panel (Millipore); type: biochemical; details: 1 µM, ATP at Km
T13 construct: purchased Millipore (KinaseProfiler) kinase panel
T13 sequence (Q15418 whole entry): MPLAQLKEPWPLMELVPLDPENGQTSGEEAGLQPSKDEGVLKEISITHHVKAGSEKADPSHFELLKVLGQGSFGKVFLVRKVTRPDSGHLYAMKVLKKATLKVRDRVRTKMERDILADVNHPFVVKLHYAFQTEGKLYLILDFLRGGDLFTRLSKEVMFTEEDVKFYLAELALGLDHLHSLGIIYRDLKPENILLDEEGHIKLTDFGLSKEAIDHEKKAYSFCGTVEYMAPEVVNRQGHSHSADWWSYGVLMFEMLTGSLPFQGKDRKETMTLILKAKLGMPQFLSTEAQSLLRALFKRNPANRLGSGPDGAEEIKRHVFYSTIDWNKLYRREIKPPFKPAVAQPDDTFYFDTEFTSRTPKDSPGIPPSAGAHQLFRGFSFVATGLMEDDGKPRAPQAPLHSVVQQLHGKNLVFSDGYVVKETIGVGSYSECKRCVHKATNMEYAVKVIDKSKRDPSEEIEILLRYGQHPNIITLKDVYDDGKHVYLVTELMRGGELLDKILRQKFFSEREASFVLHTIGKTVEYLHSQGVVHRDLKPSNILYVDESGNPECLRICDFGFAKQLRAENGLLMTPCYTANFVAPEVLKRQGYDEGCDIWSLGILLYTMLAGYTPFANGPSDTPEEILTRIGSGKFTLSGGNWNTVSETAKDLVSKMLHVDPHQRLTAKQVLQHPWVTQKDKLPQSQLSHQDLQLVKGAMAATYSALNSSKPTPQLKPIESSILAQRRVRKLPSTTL

EGFR(L861Q) = EGFR(L861Q) (Homo sapiens, UniProt P00533, L861Q); details: 1 µM, ATP at Km
CK1GAMMA1 = CK1GAMMA1 (Homo sapiens, UniProt Q9HCP0); test: Kinase panel (Millipore); type: biochemical; details: 1 µM, ATP at Km
PKBBETA = PKBBETA (Homo sapiens, UniProt P31751); test: Kinase panel (Millipore); type: biochemical; details: 1 µM, ATP at Km
NEK2 = NEK2 (Homo sapiens, UniProt P51955); test: Kinase panel (Millipore); type: biochemical; details: 1 µM, ATP at Km
TEC ACTIVATED = molecular target: T14, TEC ACTIVATED (Homo sapiens, UniProt P42680); test: Kinase panel (Millipore); type: biochemical; details: 1 µM, ATP at Km
T14 construct: purchased Millipore (KinaseProfiler) kinase panel

AR (h) = details: 10 µM, agonist radioligand
PLK3 = molecular target: T15, PLK3 (Homo sapiens, UniProt Q9H4B4); test: Kinase panel (Millipore); type: biochemical; details: 1 µM, ATP at Km
T15 construct: purchased Millipore (KinaseProfiler) kinase panel

FGFR4 = FGFR4 (Homo sapiens, UniProt P22455); test: Kinase panel (Millipore); type: biochemical; details: 1 µM, ATP at Km
BLT1 (LTB4) (h) = molecular target: T16, BLT1 (LTB4) (h) (Homo sapiens, UniProt Q15722); test: CEREP binding assay; details: agonist radioligand, read-out: % Inhibition of Control Specific Binding
T16 construct: purchased Millipore (KinaseProfiler) kinase panel
T16 sequence (Q15722 whole entry): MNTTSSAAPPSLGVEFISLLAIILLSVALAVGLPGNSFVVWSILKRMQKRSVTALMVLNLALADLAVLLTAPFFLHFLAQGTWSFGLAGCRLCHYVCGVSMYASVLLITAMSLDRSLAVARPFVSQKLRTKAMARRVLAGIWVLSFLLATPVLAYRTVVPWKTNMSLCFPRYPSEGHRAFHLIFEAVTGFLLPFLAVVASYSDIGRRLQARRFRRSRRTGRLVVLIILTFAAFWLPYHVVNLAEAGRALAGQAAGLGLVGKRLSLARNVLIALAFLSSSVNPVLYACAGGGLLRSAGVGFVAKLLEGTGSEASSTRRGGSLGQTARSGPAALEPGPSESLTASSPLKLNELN

FLT1 = molecular target: T17, FLT1 (Homo sapiens, UniProt P17948); test: Kinase panel (Millipore); type: biochemical; details: 1 µM, ATP at Km
T17 construct: purchased Millipore (KinaseProfiler) kinase panel

CK1GAMMA3 = CK1GAMMA3 (Homo sapiens, UniProt Q9Y6M4); test: Kinase panel (Millipore); type: biochemical; details: 1 µM, ATP at Km

T1 sequence (Q7L7X3 whole entry): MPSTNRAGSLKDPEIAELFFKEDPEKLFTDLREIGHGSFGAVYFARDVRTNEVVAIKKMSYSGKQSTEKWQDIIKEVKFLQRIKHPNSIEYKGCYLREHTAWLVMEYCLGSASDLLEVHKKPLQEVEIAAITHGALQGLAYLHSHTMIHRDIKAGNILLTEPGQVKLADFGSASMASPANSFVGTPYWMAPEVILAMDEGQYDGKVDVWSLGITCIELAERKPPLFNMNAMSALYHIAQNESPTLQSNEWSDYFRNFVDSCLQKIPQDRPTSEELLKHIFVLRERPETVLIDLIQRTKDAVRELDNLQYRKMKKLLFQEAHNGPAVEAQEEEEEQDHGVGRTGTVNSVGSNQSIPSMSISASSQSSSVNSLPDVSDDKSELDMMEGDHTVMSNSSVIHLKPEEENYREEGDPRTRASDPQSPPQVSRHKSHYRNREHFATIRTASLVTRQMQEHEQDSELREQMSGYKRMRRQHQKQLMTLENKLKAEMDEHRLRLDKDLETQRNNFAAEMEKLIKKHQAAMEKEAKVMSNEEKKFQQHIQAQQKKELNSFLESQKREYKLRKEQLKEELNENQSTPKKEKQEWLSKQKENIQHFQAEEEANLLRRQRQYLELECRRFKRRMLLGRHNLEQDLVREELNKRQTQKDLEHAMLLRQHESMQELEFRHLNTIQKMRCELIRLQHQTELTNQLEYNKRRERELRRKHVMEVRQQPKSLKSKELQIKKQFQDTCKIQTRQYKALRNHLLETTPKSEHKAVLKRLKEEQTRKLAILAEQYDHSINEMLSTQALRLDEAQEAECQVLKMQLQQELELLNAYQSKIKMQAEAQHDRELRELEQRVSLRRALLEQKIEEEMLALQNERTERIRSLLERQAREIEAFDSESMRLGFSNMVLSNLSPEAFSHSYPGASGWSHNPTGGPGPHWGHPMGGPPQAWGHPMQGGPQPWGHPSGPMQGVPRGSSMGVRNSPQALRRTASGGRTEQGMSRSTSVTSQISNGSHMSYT

SMILES: Cn1ncc2cc(-c3cnc(N)c(Cl)c3N3CCC4(CCNC4=O)CC3)ccc21 [Compound 109, 8-(2-Amino-3-chloro-5-(1-methyl-1H-indazol-5-yl)pyridin-4-yl)-2,8-diazaspiro[4.5]decan-1-one]
- % effect (TAO1): 6%
- % effect (CLK2): -2%
- % effect (EGFR(T790M,L858R)): 0%
- inhibition at 10 µM (CCK2 (CCKB) (h)): 0%
- % effect (GRK5): 7%
- % effect (TRKB): -11%
- % effect (JAK3): 4%
- % effect (PRK2): 1%
- inhibition at 10 µM (M4 (h)): 22%
- % effect (MST3): -11%
- % effect ([…](V561D)): 0%
- % effect (DRAK1): 1%
- % Inhibition of Control Specific Binding (PCP): -1%
- inhibition at 10 µM (A1 (h)): -4%
- % effect (CRAF): -10%
- inhibition at 10 µM (5-HT4e (h)): -3%
- % effect (DYRK2): -9%
- % effect (CAMKIIGAMMA): 8%
- % effect (PIM-1): 2%
- % effect (CDK1/CYCLINB): -12%
- % effect (CKIT): -5%
- Cl (human): ∼0.36 L/h/kg
- F (human): ∼70%
- Vd (human): ∼1.4 L/kg
- clearance prediction, allometry with correction by fu and BrW (human): 5.72 mL/min/kg
- clearance prediction, allometry with correction by fu and MLP (human): 8.52 mL/min/kg
- clearance prediction, iviv from hepatocytes (human): 3.58 mL/min/kg
- volume prediction, range of allometry methods (human): 1.3 to 1.5 L/kg
- t1/2 (human prediction): ∼2.7 h
- % Inhibition of Control Specific Binding (MT3 (ML2)): 71%
- % effect (MELK): 3%
- Vd (in vivo): 1.4 L/kg
- clearance (in vivo; iv): 17.8 mL/min/kg
- % effect (ARG): 5%
- inhibition at 10 µM (AT2 (h)): 6%
- % effect (CDK2/CYCLINE): 3%
- % effect (PAK4): -1%
- % effect (BRSK1): 7%
- % effect (RSK1): 13%
- % effect (EGFR(L861Q)): 11%
- % effect (CK1GAMMA1): -5%
- % effect (PKBBETA): -21%
- % effect (NEK2): 4%
- % effect (TEC ACTIVATED): -1%
- % Inhibition of Control Specific Binding (AR (h)): -2%
- % effect (PLK3): -2%
- % effect (FGFR4): 6%
- inhibition at 10 µM (BLT1 (LTB4) (h)): 16%
- % effect (FLT1): -8%
- % effect (CK1GAMMA3): -7%
